Assay results published in US20090062294A1, “HETEROARYL-SUBSTITUTED UREA MODULATORS OF FATTY ACID AMIDE HYDROLASE” (priority 2007, published 2009).
Structures can show the parent of a compound that is named as a salt.

Legend:
[1] = target: T1, FAAH (Homo sapiens, UniProt O00519); assay: Assay Method 1: FAAH assay, 3H-anandamide hydrolysis in homogenate of T84 cells or SK-N-MC cells transfected with human FAAH; format: biochemical; details: average of results, > = solubility limit or highest concentration tested
T1 sequence (O00519 1-579): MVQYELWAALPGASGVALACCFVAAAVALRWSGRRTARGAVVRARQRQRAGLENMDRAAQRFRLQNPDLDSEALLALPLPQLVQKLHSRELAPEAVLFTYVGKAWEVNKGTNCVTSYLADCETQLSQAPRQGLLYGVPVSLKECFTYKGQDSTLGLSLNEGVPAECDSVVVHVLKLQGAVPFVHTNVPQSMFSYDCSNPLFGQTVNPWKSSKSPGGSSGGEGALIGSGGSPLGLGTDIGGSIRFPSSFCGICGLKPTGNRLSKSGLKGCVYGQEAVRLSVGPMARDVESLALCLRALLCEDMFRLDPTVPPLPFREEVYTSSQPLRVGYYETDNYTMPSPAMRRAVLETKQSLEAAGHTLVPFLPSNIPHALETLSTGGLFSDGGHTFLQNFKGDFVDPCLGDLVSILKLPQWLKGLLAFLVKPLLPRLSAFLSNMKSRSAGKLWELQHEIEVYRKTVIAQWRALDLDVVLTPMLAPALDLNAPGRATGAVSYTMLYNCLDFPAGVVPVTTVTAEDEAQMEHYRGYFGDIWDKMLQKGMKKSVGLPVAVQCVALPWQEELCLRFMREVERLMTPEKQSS
How it was run: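 Hydrolysis of ^3H-anandamide (80 nM final, added last) was measured over 1 h at rt, using test compound with homogenate of T84 cells or human FAAH-transfected SK-N-MC cells. The homogenization buffer was 125 mM Tris, 1 mM EDTA, 0.02% Triton X-100, pH 9. Unbound labelled ethanolamine was passed through charcoal filters and scintillation-counted.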

[2] = target: T2, rat FAAH (Rattus norvegicus, UniProt P97612); assay: Assay Method 2: FAAH assay, 3H-anandamide hydrolysis in homogenate of SK-N-MC cells transfected with rat FAAH; format: biochemical; details: average of results, > = solubility limit or highest concentration tested
T2 sequence (P97612 1-579): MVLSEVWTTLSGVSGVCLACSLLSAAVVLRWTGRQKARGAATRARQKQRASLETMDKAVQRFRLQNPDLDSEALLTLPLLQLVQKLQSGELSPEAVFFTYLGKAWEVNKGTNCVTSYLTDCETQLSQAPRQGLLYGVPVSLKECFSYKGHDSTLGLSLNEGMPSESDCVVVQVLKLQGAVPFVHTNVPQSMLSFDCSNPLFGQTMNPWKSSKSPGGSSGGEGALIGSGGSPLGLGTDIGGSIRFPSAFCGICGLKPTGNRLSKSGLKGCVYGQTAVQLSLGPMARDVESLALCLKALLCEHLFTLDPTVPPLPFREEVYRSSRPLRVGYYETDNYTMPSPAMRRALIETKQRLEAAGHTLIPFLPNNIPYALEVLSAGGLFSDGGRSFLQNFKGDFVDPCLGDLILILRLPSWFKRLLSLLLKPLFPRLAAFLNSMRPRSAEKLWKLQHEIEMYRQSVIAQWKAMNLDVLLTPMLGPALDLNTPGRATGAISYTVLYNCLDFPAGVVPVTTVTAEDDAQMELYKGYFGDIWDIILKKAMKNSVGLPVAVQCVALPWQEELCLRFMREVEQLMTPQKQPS
How it was run: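 Read-out is scintillation counting of [3H]-ethanolamine passing through activated charcoal, after 1 h at rt with 80 nM final [3H]-AEA. Enzyme source: lysate of G418-selected SK-N-MC clones expressing rat FAAH, homogenized in Tris/EDTA/glycerol/0.02% Triton buffer, pH 9.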

Structure (SMILES)	IC50 [1] [nM]	IC50 [2] [nM]
O=C(Nc1cccc2nsnc12)N1CCN(Cc2ccc3c(c2)OC(F)(F)O3)CC1 [Example 4, 4-(2,2-Difluoro-benzo[1,3]dioxol-5-ylmethyl)-piperazine-1-carboxylic acid benzo[1,2,5]thiadiazol-4-ylamide trifluoroacetic acid salt]	59	260
O=C(Nc1ccc2ncsc2c1)N1CCC(Cc2ccc3ccccc3c2)CC1 [Example 19, 4-Naphthalen-2-ylmethyl-piperidine-1-carboxylic acid benzothiazol-6-ylamide]	1500	55
O=C(Nc1ccon1)N1CCN(Cc2cccc(Oc3ccc(OC(F)(F)F)cc3)c2)CC1 [Example 134, N-Isoxazol-3-yl-4-{3-[4-(trifluoromethoxy)phenoxy]benzyl}piperazine-1-carboxamide]	10	100
O=C(Nc1nnn[nH]1)N1CCN(Cc2ccc3c(c2)OC(F)(F)O3)CC1 [Example 3, 4-(2,2-Difluoro-benzo[1,3]dioxol-5-ylmethyl)-piperazine-1-carboxylic acid (1H-tetrazol-5-yl)-amide trifluoroacetic acid salt]	1200	9000
O=C(Nc1noc2ccccc12)N1CCN(Cc2cccc(C#Cc3ccc(Cl)c(Cl)c3)c2)CC1 [Example 75, N-1,2-Benzisoxazol-3-yl-4-{3-[(3,4-dichlorophenyl)ethynyl]-benzyl}-piperazine-1-carboxamide]	123	110
O=C(Nc1noc2ccccc12)N1CCC(Cc2ccc3c(c2)OC(F)(F)O3)CC1 [Example 62, N-1,2-Benzisoxazol-3-yl-4-[(2,2-difluoro-1,3-benzodioxol-5-yl)methyl]piperidine-1-carboxamide]	41	35
CN(C)CC#Cc1cccc(CN2CCN(C(=O)Nc3noc4ccccc34)CC2)c1 [Example 69, N-1,2-Benzisoxazol-3-yl-4-{3-[3-(dimethylamino)prop-1-yn-1-yl]benzyl}-piperazine-1-carboxamide]	44	2000
O=C(Nc1cccc2nsnc12)N1CCN(Cc2cccc(C#Cc3ccccc3)c2)CC1 [Example 202, N-2,1,3-Benzothiadiazol-4-yl-4-{[3-(phenylethynyl)phenyl]methyl}-piperazine-1-carboxamide]	45	85
O=C(Nc1cnccn1)N1CCN(Cc2cccc(Oc3ccc4ccccc4c3)c2)CC1 [Example 228, 4-[3-(Naphthalen-2-yloxy)-benzyl]-piperazine-1-carboxylic acid pyrazin-2-ylamide]	30	80
O=C(Nc1ccon1)N1CCN(Cc2cccc(Oc3ccc(SC(F)(F)F)cc3)c2)CC1 [Example 155, N-Isoxazol-3-yl-4-(3-{4-[(trifluoromethyl)sulfanyl]phenoxy}benzyl)-piperazine-1-carboxamide]	20	270
O=C(Nc1noc2ccccc12)N1CCN(Cc2cccc(C#Cc3ccccc3OC(F)(F)F)c2)CC1 [Example 82, N-1,2-Benzisoxazol-3-yl-4-(3-{[2-(trifluoromethoxy)phenyl]-ethynyl}benzyl)-piperazine-1-carboxamide]	272	256
O=C(Nc1nn[nH]n1)N1CCN(Cc2cccc(Oc3ccc(F)c(F)c3)c2)CC1 [Example 169, 4-[3-(3,4-Difluorophenoxy)benzyl]-N-1H-tetrazol-5-ylpiperazine-1-carboxamide]	610	600
O=C(Nc1noc2ccccc12)N1CCN(Cc2cccc(C#Cc3ccsc3)c2)CC1 [Example 77, N-1,2-Benzisoxazol-3-yl-4-[3-(thiophen-3-ylethynyl)benzyl]-piperazine-1-carboxamide]	12	64
O=C(Nc1nn[nH]n1)N1CCN(Cc2ccc(Br)c(Br)c2)CC1 [Example 167, 4-(3,4-Dibromobenzyl)-N-1H-tetrazol-5-ylpiperazine-1-carboxamide]	340	80
O=C(Nc1nnn[nH]1)N1CCN(Cc2cccc(Oc3ccc(SC(F)(F)F)cc3)c2)CC1 [Example 172, N-1H-Tetrazol-5-yl-4-(3-{4-[(trifluoromethyl)sulfanyl]phenoxy}benzyl)-piperazine-1-carboxamide]	50	10
O=C(Nc1nn[nH]n1)N1CCN(Cc2cccc(Oc3ccc(F)c(C(F)(F)F)c3)c2)CC1 [Example 185, 4-{3-[4-Fluoro-3-(trifluoromethyl)phenoxy]benzyl}-N-2H-tetrazol-5-ylpiperazine-1-carboxamide]	450	440
N#Cc1ccc(Oc2cccc(CN3CCN(C(=O)Nc4cnccn4)CC3)c2)cc1C(F)(F)F [Example 236, 4-{3-[4-Cyano-3-(trifluoromethyl)phenoxy]benzyl}-N-Pyrazin-2-ylpiperazine-1-carboxamide]	300	8000
O=C(Nc1noc2ccccc12)N1CCN(Cc2ccc(F)c(OC(F)(F)F)c2)CC1 [Example 106, N-1,2-Benzisoxazol-3-yl-4-[4-fluoro-3-(trifluoromethoxy)benzyl]-piperazine-1-carboxamide]	80	27
COc1ccccc1C#Cc1cccc(CN2CCN(C(=O)Nc3noc4ccccc34)CC2)c1 [Example 65, N-1,2-Benzisoxazol-3-yl-4-{3-[(2-methoxyphenyl)-ethynyl]-benzyl}-piperazine-1-carboxamide]	395	300
O=C(Nc1noc2ccccc12)N1CCN(Cc2ccc3c(c2)OC(F)(F)O3)CC1 [Example 1, 4-(2,2-Difluoro-benzo[1,3]dioxol-5-ylmethyl)-piperazine-1-carboxylic acid benzo[d]isoxazol-3-ylamide trifluoroacetic acid salt]	103	337
COC(=O)Cc1ccccc1C#Cc1cccc(CN2CCN(C(=O)Nc3noc4ccccc34)CC2)c1 [Example 93, Methyl {2-[(3-{[4-(1,2-benzisoxazol-3-ylcarbamoyl)piperazin-1-yl]methyl}phenyl)ethynyl]phenyl}acetate]	102	225
O=C(Nc1noc2ccccc12)N1CCN(Cc2cccc(Oc3ccc(OC(F)(F)F)cc3)c2)CC1 [Example 30, 4-[3-(4-Trifluoromethoxy-phenoxy)-benzyl]-piperazine-1-carboxylic acid benzo[d]isoxazol-3-ylamide trifluoroacetic acid salt]	0.1	14
O=C(Nc1noc2ccccc12)N1CCN(Cc2cccc(C#Cc3ccc(Cl)cc3Cl)c2)CC1 [Example 81, N-1,2-Benzisoxazol-3-yl-4-{3-[(2,4-dichlorophenyl)-ethynyl]benzyl}-piperazine-1-carboxamide]	453	238
O=C(Nc1cccc2nsnc12)N1CCN(Cc2cccc(Oc3cccc(C(F)(F)F)c3)c2)CC1 [Example 40, 4-[3-(3-Trifluoromethyl-phenoxy)-benzyl]-piperazine-1-carboxylic acid benzo[1,2,5]thiadiazol-4-ylamide trifluoroacetic acid salt]	156	15
N#Cc1ccc(Oc2cccc(CN3CCN(C(=O)Nc4cnccn4)CC3)c2)cc1 [Example 229, 4-[3-(4-Cyano-phenoxy)-benzyl]-piperazine-1-carboxylic acid pyrazin-2-ylamide]	200	3000
N#Cc1ccccc1C#Cc1cccc(CN2CCN(C(=O)Nc3noc4ccccc34)CC2)c1 [Example 85, N-1,2-Benzisoxazol-3-yl-4-{3-[(2-cyanophenyl)ethynyl]benzyl}-piperazine-1-carboxamide]	18	23
O=C(Nc1ccon1)N1CCN(Cc2ccc(F)c(Oc3ccccc3)c2)CC1 [Example 49, 4-(4-Fluoro-3-phenoxy-benzyl)-piperazine-1-carboxylic acid isoxazol-3-ylamide trifluoroacetic acid salt]	2000	360
